Assays:
[1] = tested on: Myc expression signatures; settings: AMD3100 or vehicle for 4 days in vitro, OP9 co-culture
Experimental: FIG. 14A is a heat map depicting differentially expressed genes (Myc targets are indicated) in primary mouse T-ALL cells after 4 day culture with OP9 cells in the presence of AMD3100 or vehicle (right; n=3). […] Data represents 3 different experiments, with cells pooled from 1-3 mice per experiment.
Primary mouse T-ALL cells isolated from spleen were maintained on OP9 stromal cells in OptiMEM+GlutaMAX (Invitrogen) supplemented with 10% FBS, 5 ng/ml IL-7, penicillin and streptomycin, and 55 μM (3-mercaptoethanol and passaged every 3-4 days onto a fresh feeder layer. OP9 cells were pre-treated with 7.5 ng/mL mitomycin C (Sigma) to prevent feeder cell division. Mouse ETP T-ALL (Treanor et al., “Interleukin-7 Receptor Mutants Initiate Early T Cell Precursor Leukemia in Murine Thymocyte Progenitors with Multipotent Potential,” J. Exp. Med. 211:701-713 (2014), which is hereby incorporated by reference in its entirety) and a T-ALL cell line generated by ENU mutagenesis carrying a Notch1 PEST domain mutation (G7084 (ins)C7085) were maintained on OP9-DLL4 feeders. […]
Total RNA was extracted from samples using RNeasy Plus Mini Kit (Life Technologies). […] RNA libraries were then sequenced on the Illumina HiSeq 2000 or 2500 using 50 bp single-end reads. […]

[2] = recent clinical trials data; cited from earlier work
Myc [3] = settings: 4 days culture on OP9 cells with AMD3465 or vehicle, in vitro
Experimental: (§1) Primary mouse T-ALL cells isolated from spleen were maintained on OP9 stromal cells in OptiMEM+GlutaMAX (Invitrogen) supplemented with 10% FBS, 5 ng/ml IL-7, penicillin and streptomycin, and 55 μM (3-mercaptoethanol and passaged every 3-4 days onto a fresh feeder layer. OP9 cells were pre-treated with 7.5 ng/mL mitomycin C (Sigma) to prevent feeder cell division. Mouse ETP T-ALL (Treanor et al., “Interleukin-7 Receptor Mutants Initiate Early T Cell Precursor Leukemia in Murine Thymocyte Progenitors with Multipotent Potential,” J. Exp. Med. 211:701-713 (2014), which is hereby incorporated by reference in its entirety) and a T-ALL cell line generated by ENU mutagenesis carrying a Notch1 PEST domain mutation (G7084 (ins)C7085) were maintained on OP9-DLL4 feeders. AMD3100 octahydrochloride hydrate (10 ug/mL in water; Sigma), AMD3465 hexahydrobromide (50 ug/mL in water; Tocris or Cayman Chemical) or the corresponding vehicle was added to culture media at the start of the culture period.

[4] = tested on: primary human T-ALL cells (hCD45+); settings: two weeks
Text: After GFP^+ leukemic cells reached 5% of white blood cells, osmotic pumps filled with AMD3465 (20 nmol/hour) or vehicle (PBS) were implanted subcutaneously (s.c.). […] After leukemia reached 5% of white blood cells, osmotic pumps filled with AMD3465 (25 nmol/hour) or vehicle were implanted s.c. Analysis was 2 weeks after treatment initiation. […] Values represent the mean frequency of hCD45^+ cells+/−SEM.
For human xenograft studies, NOD-SCID donor mice were used. […] 1-5×10^6 cells patient cells were transplanted into immunodeficient mouse strains via retro-orbital injection. Cells from spleen of these primary recipients were used for experiments.
For CXCR4 inhibition in xenografted patient T-ALL, NOD-SCID mice were implanted with osmotic pumps filled with 50 mM AMD3465 or PBS. Mice implanted with osmotic pumps were sacrificed 14 days later for analysis of tumor burden by flow cytometry.
First, the primary human leukemia cells were expanded in immune-deficient NOD/MrkBomTac-Prkdc^scid (NOD-SCID) hosts for 6 weeks. Subsequently, two million human T-ALL cells were transplanted into secondary NOD-SCID hosts and peripheral blood was monitored for the appearance of human CD45+ (hCD45+) leukemic cells. Once leukemia constituted >5% of white blood cells in blood, treatment began with AMD3465 or vehicle using osmotic pumps. Two weeks later, animals were sacrificed and the leukemia burden was assessed.

[5] = tested on: primary mouse T-ALL cells; settings: MIG-IRES-GFP-cMyc vs control transduced cells; 4 days OP9 co-culture
Experimental: Data represents 1 experiment with 3 replicates per group for each AMD3465 concentration tested. Error bars represent +/−SD.
as §1

[6] = tested on: Notch1-ΔE-IRES-GFP+ T-ALL cells; settings: AMD3465 20 nmol/hour via s.c. osmotic pump vs PBS; two weeks of treatment; started at >5% GFP+ blasts in blood
Text: After GFP^+ leukemic cells reached 5% of white blood cells, osmotic pumps filled with AMD3465 (20 nmol/hour) or vehicle (PBS) were implanted subcutaneously (s.c.). The graphs show T-ALL cell numbers in the indicated tissues 2 weeks after treatment initiation. Bars represent the mean. […] After leukemia reached 5% of white blood cells, osmotic pumps filled with AMD3465 (25 nmol/hour) or vehicle were implanted s.c. Analysis was 2 weeks after treatment initiation. […] Values represent the mean frequency of hCD45^+ cells+/−SEM. […] Bars represent the mean.
For inhibition of CXCR4 in primary mouse T-ALL, mice were anaesthetized by isoflurane inhalation and implanted subcutaneously with osmotic pumps (model 2002; Alzet) filled with 40 mM AMD3465 (Tocris) or PBS (flow rate 0.5 ul/hour). […] For CXCR4 inhibition in xenografted patient T-ALL, NOD-SCID mice were implanted with osmotic pumps filled with 50 mM AMD3465 or PBS. Mice implanted with osmotic pumps were sacrificed 14 days later for analysis of tumor burden by flow cytometry.
To this end, two cohorts of lethally irradiated mice were transplanted with Notch1-ΔE-IRES-GFP^+ bone marrow progenitor cells, and after >5% peripheral blood lymphocytes constituted GFP^+ leukemic blasts, AMD3465 (20 nmol/hour) or PBS was administered via osmotic pump.

Myc [7] = settings: 8 hours after s.c. AMD3465, 2 doses of 25 mg/kg 4 hours apart, vs PBS; wild-type T-ALL
Experimental: Whole cell lysates were prepared in RIPA buffer (50 mM Tris-HCl, 150 mM NaCl, 1% NP-40, 0.25% sodium deoxycholate, 5 mM EDTA) containing complete Mini protease and phosSTOP phosphatase inhibitors (Roche) and resolved by 8% SDS-PAGE gel electrophoresis. Proteins were transferred to nitrocellulose membranes (Bio-Rad) and probed with primary antibodies raised against c-Myc (polyclonal, Cell Signaling Technologies); 0-tubulin (polyclonal, Abcam); and β-actin (clone C4, Santa Cruz Biotechnologies). Following incubation with horseradish peroxidase (HRP)-conjugated anti-mouse or anti-rabbit secondary antibodies (Jackson laboratories), proteins were detected using the SuperSignal West Pico ECL Kit (Thermo Scientific) and exposed to film or imaged using the ChemiDoc MP system (Bio-rad).
For inhibition of CXCR4 in primary mouse T-ALL, mice were anaesthetized by isoflurane inhalation and implanted subcutaneously with osmotic pumps (model 2002; Alzet) filled with 40 mM AMD3465 (Tocris) or PBS (flow rate 0.5 ul/hour).

Row | SMILES | enrichment of genes down-regulated by treatment in Myc DNA binding databases (GSEA) [1] | absorption [2] | tolerability [2] | Myc protein expression (MYC-GFP fusion allele) in mouse LIC cells (Myc [3]) | number of hCD45+ cells in blood and spleen ([4]; AMD3465 25 nmol/hour via s.c. osmotic pump vs vehicle, patient 1 and 2 xenografts in NOD-SCID) | T-ALL infiltration of brain, liver and lungs (histo-pathological analysis) ([4]; AMD3465 via osmotic pump vs PBS, patient 1 xenograft) | splenomegaly ([4]; AMD3465 via osmotic pump vs vehicle (PBS), xenografted NOD-SCID mice) | proliferation of T-ALL cells in the presence of AMD3465 upon Myc overexpression [5] | leukemia burden across all tissues surveyed (T-ALL cell numbers) [6] | Myc protein levels in T-ALL cells (Myc [7])
1 | c1cc(CN2CCCNCCNCCCNCC2)ccc1CN1CCCNCCNCCCNCC1 [AMD3100, 1,1′-[1,4-phenylenebis(methylene)]bis[1,4,8,11-tetraazacyclotetradecane]] | significant enrichment | absorbed quickly | well tolerated |  |  |  |  |  |  | 
2 | c1ccc(CNCc2ccc(CN3CCCNCCNCCCNCC3)cc2)nc1 [AMD3465, N[1,4,8,11-tetraazacyclotetradecanyl-1,4-phenylene-bis-(methylene)]-2-aminomethyl-pyridine] |  |  |  | Reduced | significantly reduced | virtually leukemia-free | substantially decreased | partially restored | substantial reduction | reduced

Source: patent US20160354373A1, “METHODS OF TREATING ACUTE T CELL LEUKEMIA” (priority 2015, published 2016)
